This is an account of results in PMC7555825, “New Insights of the Zn(II)-Induced P2 × 4R Positive Allosteric Modulation: Role of Head Receptor Domain SS2/SS3, E160 and D170” (International Journal of Molecular Sciences, 2020).

In one assay the target is T1, rP2 × 4R E160Q mutant (Rattus norvegicus, UniProt P51577, E160Q).
T1 construct: host or cells: Xenopus laevis oocytes
T1 sequence (P51577 1-388 E160Q): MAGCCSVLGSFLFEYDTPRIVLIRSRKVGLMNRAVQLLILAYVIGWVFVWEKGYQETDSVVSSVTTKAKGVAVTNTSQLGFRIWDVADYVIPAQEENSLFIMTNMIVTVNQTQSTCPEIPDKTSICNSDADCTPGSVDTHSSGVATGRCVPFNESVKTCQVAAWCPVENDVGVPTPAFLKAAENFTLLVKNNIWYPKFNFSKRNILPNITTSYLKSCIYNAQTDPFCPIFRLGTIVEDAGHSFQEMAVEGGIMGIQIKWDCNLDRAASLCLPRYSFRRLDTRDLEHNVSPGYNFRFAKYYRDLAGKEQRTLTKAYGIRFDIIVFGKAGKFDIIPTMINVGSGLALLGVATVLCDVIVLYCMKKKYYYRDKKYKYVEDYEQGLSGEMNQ
Kind of assay: ATP concentration–response curves, voltage clamp, E160Q mutant. The assay is classed as cell-based. The note with it: for EC50: ATP EC50, E160Q.

The target in a further assay is T2, rP2 × 4R D170N mutant (Rattus norvegicus, UniProt P51577, D170N).
T2 construct: host or cells: Xenopus laevis oocytes
T2 sequence (P51577 1-388 D170N): T1 sequence (P51577 1-388 E160Q) with Q160E, D170N
The assay can be described thus: ATP concentration–response curves, voltage clamp, D170N mutant. The assay is classed as cell-based. The note with it: for EC50: ATP EC50, D170N.

In another assay the target is T3, rP2 × 4R C159T mutant (Rattus norvegicus, UniProt P51577, C159T).
T3 construct: expressed in transfected cells; host or cells: Xenopus laevis oocytes
T3 sequence (P51577 1-388 C159T): T1 sequence (P51577 1-388 E160Q) with C159T, Q160E
The assay can be described thus: ATP concentration–response curves, voltage clamp, C159T mutant. The format is cell-based. The settings on record: for EC50: ATP EC50, C159T.

Assay [1] concerns the target T4, rP2 × 4R C132A/C159A mutant (Rattus norvegicus, UniProt P51577, C132A/C159A).
T4 construct: host or cells: Xenopus laevis oocytes
T4 sequence (P51577 1-388 C132A/C159A): T1 sequence (P51577 1-388 E160Q) with C132A, C159A, Q160E
Kind of assay: ATP concentration–response curves, voltage clamp, C132A/C159A double mutant. The note with it: for EC50: ATP EC50, C132A/C159A. The format is cell-based.

The target in a further assay is T5, rP2 × 2R (Rattus norvegicus, UniProt P49653).
T5 sequence (P49653 1-472): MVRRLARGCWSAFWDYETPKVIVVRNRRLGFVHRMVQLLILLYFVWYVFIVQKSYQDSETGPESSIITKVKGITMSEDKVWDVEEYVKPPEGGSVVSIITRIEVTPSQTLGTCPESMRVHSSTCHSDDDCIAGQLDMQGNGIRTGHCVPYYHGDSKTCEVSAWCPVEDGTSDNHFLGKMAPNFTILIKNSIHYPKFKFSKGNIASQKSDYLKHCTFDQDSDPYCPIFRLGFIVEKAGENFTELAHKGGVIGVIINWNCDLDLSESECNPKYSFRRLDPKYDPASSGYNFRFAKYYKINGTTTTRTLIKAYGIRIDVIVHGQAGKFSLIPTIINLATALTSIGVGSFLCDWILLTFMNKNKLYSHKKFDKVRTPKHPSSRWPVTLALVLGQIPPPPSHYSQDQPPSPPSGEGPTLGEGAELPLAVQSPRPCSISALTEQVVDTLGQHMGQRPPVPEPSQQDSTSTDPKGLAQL
The assay can be described thus: cell-based.

The next assay concerns the target T6, rP2 × 4R C126A mutant (Rattus norvegicus, UniProt P51577, C126A).
T6 sequence (P51577 1-388 C126A): T1 sequence (P51577 1-388 E160Q) with C126A, Q160E
The assay can be described thus: ATP concentration–response curves, voltage clamp, C126A mutant.

Substitutions are numbered along the chain they refer to.

One may read the EC50 as the concentration giving half of the maximal effect. On to `Nc1ncnc2c1ncn2[C@@H]1O[C@H](COP(=O)(O)OP(=O)(O)OP(=O)(O)O)[C@@H](O)[C@H]1O` [ATP, adenosine triphosphate], for which the EC50 stood at 25.9 ± 7.1 µM on rP2 × 4R E160Q mutant (+10 µM Zn(II)); 23.8 ± 10.1 µM at rP2 × 4R E160Q mutant (control); 12.8 ± 8.1 µM on rP2 × 4R D170N mutant (+10 µM Zn(II)); 19.3 ± 10.5 µM at rP2 × 4R D170N mutant (control); 7 ± 2 µM on rP2 × 4R C159T mutant (+10 µM Zn(II)); 37.3 ± 8.8 µM on rP2 × 4R C159T mutant (control). The EC50 in assay [1] (+10 µM Zn(II)) came out at 4.5 ± 1.6 µM; in assay [1] (control), 77.1 ± 24.1 µM; at rP2 × 2R (ATP EC50, NEM treatment + Zn(II) group, control before treatment (first ATP curve)), 39.9 ± 8.3 µM; on rP2 × 2R (ATP EC50, NEM treatment + vehicle group, control before treatment (first ATP curve)), 67.7 ± 13.3 µM; on rP2 × 2R (ATP EC50, after 300 µM NEM + 30 µM Zn(II) treatment, control = ATP curve after treatment), 33 ± 7.4 µM; at rP2 × 2R (ATP EC50, after 300 µM NEM + vehicle treatment, control = ATP curve after treatment), 35 ± 9.2 µM. Also, the EC50 amounted to 56.4 ± 7.4 µM at rP2 × 2R (ATP EC50, vehicle treatment, Figure 1D, without Zn(II)) and 9.3 ± 3 µM at rP2 × 4R C126A mutant (ATP EC50, C126A, +10 µM Zn(II)). The same compound displayed an Imax at rP2 × 4R C126A mutant (C126A, +10 µM Zn(II)) of 11.7 ± 4.8 µA.

For the compound `[Cl-].[Cl-].[Zn+2]` [Zn(II), zinc chloride (ZnCl2)], at rP2 × 4R E160Q mutant (E160Q, 10 µM Zn(II)), the “Zn(II) modulation of the mutant” value was “resistant to Zn(II) modulation”. On rP2 × 4R D170N mutant (D170N, 10 µM Zn(II)), the “EC50 ratio in the metal presence” value is 1.5. Also, the “fold ATP EC50 reduction by Zn(II)” value on rP2 × 4R C159T mutant (C159T, 10 µM Zn(II)) came out at 5.32 fold. Besides, the “fold reduction in ATP EC50 by Zn(II)” value in assay [1] (C132A/C159A, 10 µM Zn(II)) stood at 17.1 fold; at rP2 × 4R C126A mutant (C126A, 10 µM Zn(II)), 4.1 fold.
